Like-named read-outs stand apart in the source and are kept apart here.
Tests used:
[1] = test system: MOVP-3 primary tumors; experiment: Anti-tumor effect in a multidrug resistant T-cell leukemia xenograft model; assay type: in vivo, SCID mice; conditions: for anti-tumor response / transient average weight loss: 15 mg/kg i.p.
Experimental: The anti-tumor effect of ProVP-16 II therapy was determined in a multidrug resistant xenograft model (B,C). SCID mice (n=7) were injected s.c. with 5×10^6 MOVP-3 cells and primary tumors of 250 mm^3 average size were established 55 days after inoculation. […] Tumor growth was monitored by microcaliper measurements and tumor size was calculated as described in Materials and Methods (B). […] The body weight of treated animals was determined over time and calculated as per cent of body weight on day 57 (C).
Anti-tumor effect in a T-cell leukemia xenograft model: Primary tumors were induced by injection of 5×10^6 MOVP 3 cells in 100 μl PBS (pH 7.4) into the skin of the left lateral flank of each SCID mouse. Established primary tumors were palpable 55 days after injection. […] Each mouse received a total of 7 injections on days 55,57,59,69,71,87,90 after tumor cell inoculation. Primary tumor size was determined over time by micro caliper measurements and volumes were calculated according to ½×with^2×length. Body weight was determined on a standard digital scale.

[2] = test system: Molt-3/MDR-1 cells; conditions: stable transfection with pMDR-IRESpuro
Experimental: Stable transfection of MDR-1: The MDR-1 cDNA was kindly provided in a pUC based plasmid by C. Baum, University of Hamburg. For mammalian expression, the MDR-1 cDNA was cloned into the bicistronic eukaryotic expression plasmid pIRESpuro using NotI and BamHI restriction sites. pMDR-IRESpuro was transfected into Molt-3 cells by electroporation (960 μF, 250V). Stable transfectants were selected with 300 ng/ml puromycin.
OD values were plotted as a function of drug concentration and the curves were integrated using the softmax software to obtain the IC50 concentration values.

[3] = test system: multidrug resistant MOVP-3 cells; experiment: XTT cytotoxicity assay, multidrug resistant MOVP-3 subline; assay type: cell-based, human; conditions: for IC50: MOVP-3 cells; for cross resistance of MOVP-3 cells: from IC50 values MOVP-3 vs Molt-3
Experimental: MDR-1 gene expression was determined by RT-PCR analysis on total RNA isolated from MOVP-3 and Molt-3 cells, respectively (6A). Expression of GAPDH was used as a control for the integrity of the cDNA. […] (6C) Cross-resistance of MOVP-3 cells against MDR-1 drugs (doxorubicin, melphalan, vinblastine and paclitaxel) was calculated from IC50 values (n=3) as described in 6B).
Cells: Tumor cell lines were grown in RPMI, 10% FCS (Nalm-6, Reh, Molt-3, Jurkat, HL-60, K562, HeLa, CEM, A2780, SW480) or DMEM, 10% FCS (NXS2, SK-N-SH, HT-29) in the presence of 100 IU/ml penicillin/streptomycin (P/S) and propagated under standard tissue culture conditions (5% CO2, 37° C.). All cell lines were obtained from ATCC, Rockville, Md. except NXS2 which was previously described (Lode H N, Xiang R, Varki N M, Dolman C S, Gillies S D, Reisfeld R A. Targeted interleukin-2 therapy for spontaneous neuroblastoma metastases to bone marrow. Journal of the National Cancer Institute. 1997; 89:1586-1594.) and VCR100, ADR5000 and A2780 which were kindly provided by James Beck, Greifswald, Germany (Beck J, Handgretinger R, Dopfer R, Klingebiel T, Niethammer D, Gekeler V. Expression of mdrl, mrp, topoisomerase II alpha/beta, and cyclin A in primary or relapsed states of acute lymphoblastic leukaemias. Br J Haematol. 1995; 89:356-363; Beck J F, Bohnet B, Brugger D, et al. Expression analysis of protein kinase C isozymes and multidrug resistance associated genes in ovarian cancer cells. Anticancer Res. 1998; 18:701-705.).

[4] = for kobs: PBS buffer
Experimental: ProVP-16 I was incubated in THF/2% HCl and samples were periodically analyzed by HPLC at the indicated time points (A). Hydrolytic activation of ProVP-16 II was determined in phosphate buffered saline (PBS) a t the pH levels indicated (B). ProVP-16 I (3 mM) was incubated in PBS solutions and samples were periodically analyzed by HPLC. The percent conversion was calculated from areas under the curve determined by peak integration.

[5] = human serum, pH 7.3, 37° C.
[6] = test system: Hamms human colon carcinoma cells; experiment: XTT cytotoxicity assay, Hamms; assay type: cell-based
Experimental: (§4) Cytotoxicity assay: Cytotoxicity was determined by the XTT tetrazolium/formazan assay as previously described (Scudiero D A, Shoemaker R H, Paull K D, et al. Evaluation of a soluble tetrazolium/formazan assay for cell growth and drug sensitivity in culture using human and other tumor cell lines. Cancer Res. 1988; 48:4827-4833.). Briefly, cells were seeded in 96 flat bottom well plates at a density of 10^4/well in 100 μl media and exposed to drug concentrations ranging from 10^−4 to 10^−12 M. At the indicated time points (6-72 hr), cell viability was assessed by adding 50 μl XTT-reagent (1 mg/ml in serum free RPMI) activated with 0.2% v/v PMS (1.53 mg/ml in PBS) incubated at 37° C. for 4 h. Plates were analyzed in a Thermomax (Molecular Devices) micro plate reader at 450 nm. OD values were plotted as a function of drug concentration and the curves were integrated using the softmax software to obtain the IC50 concentration values.

[7] = test system: Molt-3 T-cell leukemia; experiment: XTT cytotoxicity assay, Molt-3; conditions: for cytotoxic effects at early incubation: Molt-3, up to 12 h of incubation
Experimental: (§1) The cytotoxic effect of ProVP-16 I and II was evaluated against a panel of cell lines by triplicate determinations of IC50 concentrations for both prodrugs against each cell line (A). […] Bars represent mean values ±SD.
At the time points indicated, cell viability was determined in triplicate by the XTT assay as described in Materials and Methods. […] Results were plotted as a semilogarithmic function of drug concentration.

[8] = Water solubility; assay type: physicochemical; conditions: compared with ProVP-16 I
[9] = test system: Molt-3 parental cells; experiment: Cell cycle analysis (propidium iodide, FACS), Molt-3; assay type: cell-based, human; conditions: Molt-3 cells, 0.5 μM, up to 72 h
Experimental: (§2) Cells were harvested at indicated time points (n=3), fixed, stained with propidium iodide and analyzed by FACS as described in Materials and Methods. Per cent cells in pre G1 (apoptosic cells) were calculated from DNA histograms.
(§3) Cell cycle analysis: Distinct phases of the cell cycle were determined in a standard assay using propidium iodide. […] At indicated time points, cells were harvested and fixed in 4.5 ml ethanol (75%, −20° C.) for at least 12 h (4° C.). Cells were washed in PBS (pH 7.4) and resuspended in 250 μl PBS containing RNAse (0.3 mg/ml) and propidium iodide (50 μg/ml) and incubated in the dark (30 min, RT). The DNA histograms defining distinct phases of the cell cycle were subsequently determined in duplicates by FACS analysis and average results were expressed as per cent.

[10] = test system: porcine liver carboxyl ester hydrolase
[11] = test system: MOVP-3 cells; experiment: Cell cycle analysis (propidium iodide, FACS), MOVP-3; assay type: cell-based, human; conditions: 0.5 μM, up to 72 h
Experimental: as §2, §3

[12] = test system: SW480 colon carcinoma; conditions: SW480, vs VP-16
Experimental: as §1

[13] = test system: CHO Chinese hamster ovary; experiment: XTT cytotoxicity assay, CHO; assay type: cell-based
Experimental: as §4

[14] = test system: NXS2 murine neuroblastoma; experiment: XTT cytotoxicity assay, NXS2; assay type: cell-based
Experimental: as §1

[15] = for maximum tolerated dose: defined by a decrease in body weight <20%
Experimental: The body weight was determined for each animal over time and calculated as per cent of total weight observed on day 0. An event as indicated by Kaplan Maier plots is defined by loss of body weight greater than 20%.
Body weights and survival were monitored over time.

[16] = Conversion of ProVP-16 I to ProVP-16 II under acid conditions (HPLC); assay type: physicochemical; conditions: acid conditions (THF, 2N HCL)
Experimental: ProVP-16 I was incubated in THF/2% HCl and samples were periodically analyzed by HPLC at the indicated time points (A). […] ProVP-16 I (3 mM) was incubated in PBS solutions and samples were periodically analyzed by HPLC. The percent conversion was calculated from areas under the curve determined by peak integration.

[17] = target: MDR-1 p-glycoprotein (Homo sapiens, UniProt P08183); conditions: MOVP-3 cells; for effect on the decrease in FL-1 signal (JC-1 efflux): coincubation with 3×10^−4 M
Experimental: Samples incubated with 2 μM cyclosporin A were used as positive controls (data not shown). Cell fluorescence was recorded using a FAC Sort flow cytometer (Becton Dickinson) and JC-1 signals were detected on the FL1-channel (530 nm filter) for analysis of the dye monomer.

[18] = Molt-3 cells, resistance experiment (FIG. 4B)
[19] = porcine liver carboxyl ester hydrolase, pH 7.3, 37° C.
[20] = Molt-3, time course, 48-72 h after incubation

Chain of MDR-1 p-glycoprotein (P08183 whole entry): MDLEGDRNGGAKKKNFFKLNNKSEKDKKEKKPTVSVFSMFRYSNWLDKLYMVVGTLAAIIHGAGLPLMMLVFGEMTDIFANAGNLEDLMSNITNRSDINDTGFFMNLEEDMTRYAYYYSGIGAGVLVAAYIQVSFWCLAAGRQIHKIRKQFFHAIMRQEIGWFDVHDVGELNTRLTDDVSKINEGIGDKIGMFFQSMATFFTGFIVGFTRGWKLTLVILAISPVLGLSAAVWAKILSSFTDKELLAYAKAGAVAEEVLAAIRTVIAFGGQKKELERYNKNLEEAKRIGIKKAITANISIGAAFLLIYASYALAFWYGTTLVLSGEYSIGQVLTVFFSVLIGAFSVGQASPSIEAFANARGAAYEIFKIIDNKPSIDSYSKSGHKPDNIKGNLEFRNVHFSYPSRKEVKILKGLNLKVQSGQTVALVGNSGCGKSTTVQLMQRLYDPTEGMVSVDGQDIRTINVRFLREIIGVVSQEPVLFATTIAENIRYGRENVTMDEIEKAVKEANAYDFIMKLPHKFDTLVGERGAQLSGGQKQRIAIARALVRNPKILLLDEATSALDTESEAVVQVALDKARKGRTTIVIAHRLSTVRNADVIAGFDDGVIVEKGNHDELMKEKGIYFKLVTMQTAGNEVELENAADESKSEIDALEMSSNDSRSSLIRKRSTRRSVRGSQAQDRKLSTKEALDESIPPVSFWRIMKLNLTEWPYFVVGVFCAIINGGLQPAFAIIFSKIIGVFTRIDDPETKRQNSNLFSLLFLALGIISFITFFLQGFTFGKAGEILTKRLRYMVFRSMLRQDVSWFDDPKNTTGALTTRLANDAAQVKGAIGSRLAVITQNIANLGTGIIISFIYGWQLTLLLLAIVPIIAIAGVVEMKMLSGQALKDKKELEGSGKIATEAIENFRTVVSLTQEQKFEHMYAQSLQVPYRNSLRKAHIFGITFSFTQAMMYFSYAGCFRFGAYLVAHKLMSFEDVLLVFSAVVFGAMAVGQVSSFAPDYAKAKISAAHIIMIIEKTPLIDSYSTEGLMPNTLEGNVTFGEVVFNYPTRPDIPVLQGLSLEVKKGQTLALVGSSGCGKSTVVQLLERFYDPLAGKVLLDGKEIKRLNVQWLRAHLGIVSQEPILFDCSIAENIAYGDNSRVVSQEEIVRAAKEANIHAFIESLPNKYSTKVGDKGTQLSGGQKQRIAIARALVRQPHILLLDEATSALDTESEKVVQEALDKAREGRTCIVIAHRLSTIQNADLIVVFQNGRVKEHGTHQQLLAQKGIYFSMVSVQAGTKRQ

COc1cc(C2c3cc4c(cc3C(OC3OC5COC(C)OC5C(O)C3O)C3COC(=O)C23)OCO4)cc(OC)c1OC(=O)OCC(O)CO (centres unmarked) [ProVP-16 II]
anti-tumor response [1]: dramatic reduction in primary tumor growth
transient average weight loss [1]: no measurable weight loss
time the regression was stable ([1]; 45 mg/kg i.p.): over 2 months
transient weight loss ([1]; 45 mg/kg i.p.): 6%
animals with regression of established primary tumors ([1]; 45 mg/kg i.p., 10 days after initiation of treatment): 7/7
sensitivity / resistance of Molt-3/MDR-1 cells [2]: remained fully sensitive
resistance of MOVP-3 cells (IC50 MOVP-3÷IC50 Molt-3) [3]: no significant difference
IC50 [3]: 20 nM
kobs ([4]; pH 5.0-7.3, 37° C.): no conversion
kobs ([4]; pH 8.0, 37° C.): 3.201 ± 0.428 10^−3-min^−1
kobs ([4]; pH 8.8, 37° C.): 7.142 ± 0.351 10^−3-min^−1
kobs ([4]; pH 10.5, 37° C.): 100.01 ± 12.72 10^−3-min^−1
conversion rate ([4]; pH 7.4): < 5%
t1/2 ([5]; listed as ProPV-16 II): 56.1 min
t1/2 ([5]; listed as Prodrug II): 56.07 min
response to proetoposides compared with etoposide [6]: responded equally well
cytotoxic effects at early incubation [7]: absence of cytotoxic effects
IC50 [7, 18]: 20 nM
water solubility [8]: higher water solubility
induction of apoptosis (pre-G1 peak) [9]: Induction of apoptosis was also demonstrated
kobs ([10]; pH 7.3): 1.348 ± 0.081 10^−3-min^−1
t1/2 [10, 19]: 514.1 min
induction of apoptosis (pre-G1 peak) [11]: very effective in inducing a steady increase in the pre-G1 peak
IC50 fold lower than parent compound [12]: 1000 fold
response to proetoposides compared with etoposide [13]: responded equally well
response to proetoposides compared with etoposide [14]: responded equally well
survival / tolerability ([15]; 20 mg/kg i.p.): well tolerated with no death
survival / tolerability ([15]; 60 mg/kg i.p.): well tolerated with no death
maximum tolerated dose [15]: 60 mg/kg
decrease of systemic toxicity by the prodrug design, factor ([15]; mouse, in vivo): ≥ 3
increase in the maximum tolerated dose over the parental compound ([15]; vs VP-16): greater than 3 fold

COc1cc(C2c3cc4c(cc3C(OC3OC5COC(C)OC5C(O)C3O)C3COC(=O)C23)OCO4)cc(OC)c1OC(=O)OCC1COC(C)(C)O1 (centres unmarked) [ProVP-16 I]
sensitivity / resistance of Molt-3/MDR-1 cells [2]: remained fully sensitive
IC50 [3]: 20 nM
resistance of MOVP-3 cells (IC50 MOVP-3÷IC50 Molt-3) ([3]; MOVP-3 vs Molt-3): no significant difference
conversion in PBS ([4]; PBS (pH 7.4, 37° C.)): no measurable conversion
kobs ([4]; pH 5.0-10.0, 37° C.): no conversion
kobs ([4]; pH 11.8, 37° C.): 8.333 ± 0.50 10^−3-min^−1
stability under basic buffer conditions ([4]; basic buffer conditions (pH <10.0)): inert
kobs [5]: 0.923 ± 0.046 10^−3-min^−1
t1/2 [5]: 750.8 min
response to proetoposides compared with etoposide [6]: responded equally well
IC50 [7, 20]: 10 nM
onset of cytotoxic activity ([7]; Molt-3, time of incubation): > 24 h
cytotoxic effects at early incubation [7]: absence of cytotoxic effects
IC50 [7, 18]: 20 nM
degradation of the glycoside moiety [16]: about 10%
time for conversion to ProVP-16 II [16]: ≤ 2 h
induction of apoptosis (pre-G1 peak) [9]: Induction of apoptosis was also demonstrated
kobs [10, 19]: 48.89 ± 3.62 10^−3-min^−1
t1/2 [10, 19]: 14.2 min
t1/2 ([10]; porcine liver carboxyl ester hydrolase, pH 7.3, 37° C., listed as Prodrug I): 14.17 min
effect on the decrease in FL-1 signal (JC-1 efflux) [17]: abrogated
lowest concentration inhibiting MDR-1 mediated efflux ([17]; data not shown): 10 µM
induction of apoptosis (pre-G1 peak) [11]: very effective in inducing a steady increase in the pre-G1 peak
IC50 fold lower than parent compound [12]: 1000 fold
response to proetoposides compared with etoposide [13]: responded equally well
response to proetoposides compared with etoposide [14]: responded equally well

COc1cc([C@@H]2c3cc4c(cc3[C@@H](O[C@@H]3O[C@@H]5CO[C@@H](C)O[C@H]5[C@H](O)[C@H]3O)[C@H]3COC(=O)[C@H]23)OCO4)cc(OC)c1O [VP-16, etoposide, reference compound]
anti-tumor response [1]: no anti-tumor response
transient average weight loss [1]: 20%
sensitivity / resistance of Molt-3/MDR-1 cells [2]: resistance
IC50 [3]: 2000 nM
resistance in vitro ([3]; MOVP-3 model with stably amplified MDR-1): 100 ×
cross resistance of MOVP-3 cells [3]: cross resistance
IC50 [7, 20]: 65 nM
IC50 [7, 18]: 20 nM
induction of apoptosis (pre-G1 peak) [9]: induce apoptosis in Molt-3 cells to a similar extent as ProVP-16 I and II
effect on the decrease in FL-1 signal (JC-1 efflux) [17]: ineffective in modulating MDR-1 function
induction of apoptosis (pre-G1 peak) [11]: ineffective to induce apoptosis
maximum tolerated dose [15]: 20 mg/kg
mice with a weight loss >20% ([15]; mouse, in vivo): 5/6

COc1cccc2c1C(=O)c1c(O)c3c(c(O)c1C2=O)C[C@@](O)(C(=O)CO)C[C@@H]3O[C@H]1C[C@H](N)[C@H](O)[C@H](C)O1 [doxorubicin]
sensitivity / resistance of Molt-3/MDR-1 cells [2]: resistance
cross resistance of MOVP-3 cells [3]: cross resistance

N[C@@H](Cc1ccc(N(CCCl)CCCl)cc1)C(=O)O [melphalan]
cross resistance of MOVP-3 cells [3]: statistically significant

CC(=O)O[C@H]1C(=O)[C@@]2(C)[C@H]([C@H](OC(=O)c3ccccc3)[C@]3(O)C[C@H](OC(=O)[C@H](O)[C@@H](NC(=O)c4ccccc4)c4ccccc4)C(C)=C1C3(C)C)[C@]1(OC(C)=O)CO[C@@H]1C[C@@H]2O [paclitaxel]
sensitivity / resistance of Molt-3/MDR-1 cells [2]: resistance
cross resistance of MOVP-3 cells [3]: cross resistance

CC[C@]1(O)C[C@@H]2CN(CCc3c([nH]c4ccccc34)[C@@](C(=O)OC)(c3cc4c(cc3OC)N(C)[C@H]3[C@@](O)(C(=O)OC)[C@H](OC(C)=O)[C@]5(CC)C=CCN6CC[C@]43[C@@H]65)C2)C1 [vinblastine]
sensitivity / resistance of Molt-3/MDR-1 cells [2]: resistance
cross resistance of MOVP-3 cells [3]: cross resistance

Reference: patent US7582778B2, “Podophyllotoxin” (Universitatsklinikum Charite der Humboldt-Universitat zu, priority 2001, dated 2009)
